Results from patent publication US20240000872A1, “NOVEL BACTERIOPHAGE THAT LYSES ACINETOBACTER GENUS BACTERIA HAVING RESISTANCE TO ANTIBIOTICS” (priority 2020, published 2024).

Test system: Acinetobacter baumannii strains
Assay: Antibiotic susceptibility test (CLSI disk diffusion test method, read per CLSI 2016); further: key: ‘S’ means susceptible; ‘I’ means intermediate; ‘R’ means resistant
Type: cell-based

NCC[C@H](O)C(=O)N[C@@H]1C[C@H](N)[C@@H](O[C@H]2O[C@H](CN)[C@@H](O)[C@H](O)[C@H]2O)[C@H](O)[C@H]1O[C@H]1O[C@H](CO)[C@@H](O)[C@H](N)[C@H]1O [Amikacin, amikacin]
R: antibiotic susceptibility class (host strain YMC14/01/C29) | antibiotic susceptibility class (host strain YMC14/01/IP122) | antibiotic susceptibility class (host strain YMC14/01/L8) | antibiotic susceptibility class (host strain YMC14/01/P31) | antibiotic susceptibility class (host strain YMC14/01/P117) | antibiotic susceptibility class (host strain YMC14/01/P224) | antibiotic susceptibility class (host strain YMC14/01/P727) | antibiotic susceptibility class (host strain YMC14/01/P728) | antibiotic susceptibility class (host strain YMC14/01/R130) | antibiotic susceptibility class (host strain YMC14/01/R160) | antibiotic susceptibility class (host strain YMC14/01/R198) | antibiotic susceptibility class (host strain YMC14/01/R270) | antibiotic susceptibility class (host strain YMC14/01/R324) | antibiotic susceptibility class (host strain YMC14/01/R443) | antibiotic susceptibility class (host strain YMC14/01/R451) | antibiotic susceptibility class (host strain YMC14/01/R560) | antibiotic susceptibility class (host strain YMC14/01/R617) | antibiotic susceptibility class (host strain YMC14/01/R671) | antibiotic susceptibility class (host strain YMC14/01/R732) | antibiotic susceptibility class (host strain YMC14/01/R767) | antibiotic susceptibility class (host strain YMC14/01/R904) | antibiotic susceptibility class (host strain YMC14/01/R905) | antibiotic susceptibility class (host strain YMC14/01/R941) | antibiotic susceptibility class (host strain YMC14/01/R958) | antibiotic susceptibility class (host strain YMC14/01/R1006) | antibiotic susceptibility class (host strain YMC14/01/R1199) | antibiotic susceptibility class (host strain YMC14/01/R1659) | antibiotic susceptibility class (host strain YMC14/01/R1722) | antibiotic susceptibility class (host strain YMC14/01/R1752) | antibiotic susceptibility class (host strain YMC14/01/R2429) | antibiotic susceptibility class (host strain YMC14/01/R2572) | antibiotic susceptibility class (host strain YMC14/01/R2855) | antibiotic susceptibility class (host strain YMC14/01/R2945) | antibiotic susceptibility class (host strain YMC14/01/R3007) | antibiotic susceptibility class (host strain YMC14/01/R3129) | antibiotic susceptibility class (host strain YMC14/01/R3317) | antibiotic susceptibility class (host strain YMC14/01/R3474) | antibiotic susceptibility class (host strain YMC14/01/R3574) | antibiotic susceptibility class (host strain YMC14/01/U313) | antibiotic susceptibility class (host strain YMC14/01/U318) | antibiotic susceptibility class (host strain YMC14/02/L18) | antibiotic susceptibility class (host strain YMC14/02/P47) | antibiotic susceptibility class (host strain YMC14/02/R2417) | antibiotic susceptibility class (host strain YMC14/02/R2668) | antibiotic susceptibility class (host strain YMC14/02/R2758) | antibiotic susceptibility class (host strain YMC14/02/R2781) | antibiotic susceptibility class (host strain YMC14/02/R3106) | antibiotic susceptibility class (host strain YMC14/02/R3419) | antibiotic susceptibility class (host strain YMC14/03/R217) | antibiotic susceptibility class (host strain YMC14/03/R380) | antibiotic susceptibility class (host strain YMC14/03/R2144) | antibiotic susceptibility class (host strain YMC14/03/U4616) | antibiotic susceptibility S/I/R (host strain YMC14/06/R2359) | susceptibility category (S/I/R) (host strain YMC14/06/R2359) | antibiotic susceptibility S/I/R (host strain YMC14/08/R1169) | susceptibility category (S/I/R) (host strain YMC14/08/R1169) | antibiotic susceptibility S/I/R (host strain YMC14/08/T90) | susceptibility category (S/I/R) (host strain YMC14/08/T90) | antibiotic susceptibility S/I/R (host strain YMC15/02/R436) | susceptibility category (S/I/R) (host strain YMC15/02/R436) | antibiotic susceptibility S/I/R (host strain YMC15/02/T28) | susceptibility category (S/I/R) (host strain YMC15/02/T28) | antibiotic susceptibility S/I/R (host strain YMC15/03/R1604) | susceptibility category (S/I/R) (host strain YMC15/03/R1604) | antibiotic susceptibility S/I/R (host strain YMC15/09/R1869) | susceptibility category (S/I/R) (host strain YMC15/09/R1869) | antibiotic susceptibility S/I/R (host strain YMC16/01/P11) | susceptibility category (S/I/R) (host strain YMC16/01/P11) | antibiotic susceptibility S/I/R (host strain YMC16/01/R123) | susceptibility category (S/I/R) (host strain YMC16/01/R123) | antibiotic susceptibility S/I/R (host strain YMC16/01/R198) | susceptibility category (S/I/R) (host strain YMC16/01/R198) | antibiotic susceptibility S/I/R (host strain YMC16/01/R353) | susceptibility category (S/I/R) (host strain YMC16/01/R353) | antibiotic susceptibility S/I/R (host strain YMC16/01/R397) | susceptibility category (S/I/R) (host strain YMC16/01/R397) | antibiotic susceptibility S/I/R (host strain YMC16/01/R405) | susceptibility category (S/I/R) (host strain YMC16/01/R405) | antibiotic susceptibility S/I/R (host strain YMC16/03/R4461) | susceptibility category (S/I/R) (host strain YMC16/03/R4461) | antibiotic susceptibility S/I/R (host strain YMC16/07/R2512) | susceptibility category (S/I/R) (host strain YMC16/07/R2512) | antibiotic susceptibility S/I/R (host strain YMC16/09/R2471) | susceptibility category (S/I/R) (host strain YMC16/09/R2471) | antibiotic susceptibility S/I/R (host strain YMC16/10/R2537) | susceptibility category (S/I/R) (host strain YMC16/10/R2537) | antibiotic susceptibility S/I/R (host strain YMC16/12/B11422) | susceptibility category (S/I/R) (host strain YMC16/12/B11422) | antibiotic susceptibility S/I/R (host strain YMC16/12/B11449) | susceptibility category (S/I/R) (host strain YMC16/12/B11449) | antibiotic susceptibility S/I/R (host strain YMC16/12/B13325) | susceptibility category (S/I/R) (host strain YMC16/12/B13325) | antibiotic susceptibility S/I/R (host strain YMC16/12/P503) | susceptibility category (S/I/R) (host strain YMC16/12/P503) | antibiotic susceptibility S/I/R (host strain YMC16/12/R4637) | susceptibility category (S/I/R) (host strain YMC16/12/R4637) | antibiotic susceptibility S/I/R (host strain YMC17/01/B8053) | susceptibility category (S/I/R) (host strain YMC17/01/B8053) | antibiotic susceptibility S/I/R (host strain YMC17/01/B10087) | susceptibility category (S/I/R) (host strain YMC17/01/B10087) | antibiotic susceptibility S/I/R (host strain YMC17/01/B13454) | susceptibility category (S/I/R) (host strain YMC17/01/B13454) | antibiotic susceptibility S/I/R (host strain YMC17/01/P518) | susceptibility category (S/I/R) (host strain YMC17/01/P518) | antibiotic susceptibility S/I/R (host strain YMC17/01/R2812) | susceptibility category (S/I/R) (host strain YMC17/01/R2812) | antibiotic susceptibility S/I/R (host strain YMC17/02/B14) | susceptibility category (S/I/R) (host strain YMC17/02/B14) | antibiotic susceptibility S/I/R (host strain YMC17/02/B721) | susceptibility category (S/I/R) (host strain YMC17/02/B721) | antibiotic susceptibility S/I/R (host strain YMC17/02/B4039) | susceptibility category (S/I/R) (host strain YMC17/02/B4039) | antibiotic susceptibility S/I/R (host strain YMC17/02/B4520) | susceptibility category (S/I/R) (host strain YMC17/02/B4520) | antibiotic susceptibility S/I/R (host strain YMC17/02/B8414) | susceptibility category (S/I/R) (host strain YMC17/02/B8414) | antibiotic susceptibility S/I/R (host strain YMC17/02/R541) | susceptibility category (S/I/R) (host strain YMC17/02/R541) | antibiotic susceptibility S/I/R (host strain YMC17/02/R2392) | susceptibility category (S/I/R) (host strain YMC17/02/R2392) | antibiotic susceptibility S/I/R (host strain YMC17/03/B4730) | susceptibility category (S/I/R) (host strain YMC17/03/B4730) | antibiotic susceptibility S/I/R (host strain YMC17/03/B5000) | susceptibility category (S/I/R) (host strain YMC17/03/B5000) | antibiotic susceptibility S/I/R (host strain YMC17/03/P971) | susceptibility category (S/I/R) (host strain YMC17/03/P971) | antibiotic susceptibility S/I/R (host strain YMC17/03/R348) | susceptibility category (S/I/R) (host strain YMC17/03/R348) | antibiotic susceptibility S/I/R (host strain YMC17/03/R585) | susceptibility category (S/I/R) (host strain YMC17/03/R585) | antibiotic susceptibility S/I/R (host strain YMC17/03/R1888) | susceptibility category (S/I/R) (host strain YMC17/03/R1888) | antibiotic susceptibility S/I/R (host strain YMC17/03/R3279) | susceptibility category (S/I/R) (host strain YMC17/03/R3279) | antibiotic susceptibility S/I/R (host strain YMC17/03/R4077) | susceptibility category (S/I/R) (host strain YMC17/03/R4077) | antibiotic susceptibility S/I/R (host strain YMC17/03/R4607) | susceptibility category (S/I/R) (host strain YMC17/03/R4607) | antibiotic susceptibility S/I/R (host strain YMC17/04/R488) | susceptibility category (S/I/R) (host strain YMC17/04/R488) | antibiotic susceptibility S/I/R (host strain YMC17/04/R640) | susceptibility category (S/I/R) (host strain YMC17/04/R640) | antibiotic susceptibility S/I/R (host strain YMC/17/05/R1095) | susceptibility category (S/I/R) (host strain YMC/17/05/R1095)
S: antibiotic susceptibility class (host strain YMC14/01/R257) | antibiotic susceptibility class (host strain YMC14/01/R921) | antibiotic susceptibility class (host strain YMC14/02/R1860) | antibiotic susceptibility class (host strain YMC14/02/R2599) | antibiotic susceptibility class (host strain YMC14/02/U1607) | antibiotic susceptibility class (host strain YMC14/03/L9) | antibiotic susceptibility class (host strain YMC14/03/P471) | antibiotic susceptibility class (host strain YMC14/03/R122) | antibiotic susceptibility class (host strain YMC14/03/R618) | antibiotic susceptibility class (host strain YMC14/04/R1078) | antibiotic susceptibility class (host strain YMC14/04/R1080) | antibiotic susceptibility S/I/R (host strain YMC17/01/B12075) | susceptibility category (S/I/R) (host strain YMC17/01/B12075) | antibiotic susceptibility S/I/R (host strain YMC17/02/B87) | susceptibility category (S/I/R) (host strain YMC17/02/B87) | antibiotic susceptibility S/I/R (host strain YMC17/02/B4864) | susceptibility category (S/I/R) (host strain YMC17/02/B4864) | antibiotic susceptibility S/I/R (host strain YMC17/02/P523) | susceptibility category (S/I/R) (host strain YMC17/02/P523)
